Laboratory results reported in US7705203B2, “Benzoate inductible promoters” (Purdue Research Foundation, priority 2002, dated 2010).

Columns and labels:
bphA gene = assay: RNA (Northern) blot of bphA gene transcription in mycelia; type: cell-based, Aspergillus niger
Procedure: The time course gene expression induction was examined by analyzing total RNA at different times after adding benzoic acid. Northern (RNA) blots were carried out using total RNA extracted from mycelia grown for different periods of time in the presence of benzoic acid. Initially, the fungus was inoculated in CM medium (Pontecorvo (1953) Adv. Genet. 5: 141-238) for 24 hours, transferred to benzoate-containing medium (0.1% w/v) for different times, and total RNA was extracted using the Rneasy Plant Total RNA kit (Qiagen Inc, Valencia, Calif.) according to the manufacturer's instructions. Total RNA was resolved on a formaldehyde-agarose gel and transferred to a Hybond-N nylon membrane (Amersham Life Sci. Inc, Arlington Heights, Ill.). Radiolabeled BPH probe was allowed to hybridize to the membrane, as described above. Northern blot methods were also carried out as recommended (Amersham).
Different benzoate concentrations and inducers were used to better characterize the inducibility of the bphA gene. Gene expression was assayed by Northern blots. Benzoate 4-hydroxylase activity is also assessed by enzymatic assays to confirm the inducibility at the transcriptional level described by Van Gorcom et al. ((1990) Mol. Gen. Genet. 223, 192-197). Inducibility is also verified by reverse transcription of mRNAs produced under induction conditions.
To verify the inducibility of the bphA gene by benzoic acid, A. niger was inoculated in complete medium and grown for 24 hours before being transferred to fresh medium containing 0.1% benzoic acid. Mycelia were harvested after different periods of induction, and total RNA was extracted.

BRE = assay: Activation of BRE fused to GFP in fungal protoplasts (surface receptor test); type: cell-based
Procedure: While not necessary to understand to practice the invention, a more complicated mechanism of induction may include a surface receptor that binds to benzoate and which then initiates either some kind of signal transduction cascade or the release of a TF that then culminates in the activation of the BPH promoter (FIGS. 12C and D). The hypothesis of a surface receptor was tested by using the p-NH2-benzoate coupled to agarose (as described above) as a non-cleavable external probe. Fungal protoplasts containing the BRE fused to GFP were then prepared, and activation of the BRE (production of the GFP marker) by addition of the agarose-immobilized benzoate derivative to the fungal protoplasts was scored. […] In order to investigate whether the disparity of size between the larger agarose beads and fungal protoplasts may have caused steric problems in binding of the inducer, smaller ligands still incapable of uptake are constructed and utilized to confirm a non-membrane surface location.
The hypothesis of a surface receptor was tested by using the p-NH2-benzoate coupled to agarose (as described above) as a non-cleavable external probe. Fungal protoplasts containing the BRE fused to GFP were then prepared, and activation of the BRE (production of the GFP marker) by addition of the agarose-immobilized benzoate derivative to the fungal protoplasts was scored. […]

SMILES: O=C(O)c1ccccc1 [benzoic acid]
- induction of transcription of the bphA gene (bphA gene; 8 mM inducer, RNA blot (FIG. 4)): induced
- benzoic acid concentrations as low as ... induce transcription of the bphA gene (bphA gene; concentration curves): 0.8 mM
- GFP fluorescence in the BRE-GFP transformed line (BRE): induced GFP fluorescence
